Measurements: patent publication US11261211B2, “19-NOR neuroactive steroids and methods of use thereof” (Sage Therapeutics, Inc., priority 2013, dated 2022)

Molecular target: α1β2γ2 GABAA receptor (Homo sapiens (Human), UniProt P14867+P47870)
Test: Patch clamp electrophysiology of recombinant α1β2γ2 GABAA receptors in LTK cells
Format: cell-based
Conditions: for activity at 10 µM / Emax: LTK; for activity at 10 µM / α1β2γ2 GABA Qpatch in Ltk (Efficacy at 10 μm): 10 μM compound, Qpatch, Ltk cells, GABA EC20 2 μM; for activity at 10 µM: read-out: α1β2γ2 GABA Qpatch in Ltk (Efficacy at 10 μm); for Emax / EC50: potentiation of GABA EC20 (2 μM) current; for Emax: read-out: GABAa alpha1 (α1β2γ2) Emax (%); for EC50: read-out: GABAa alpha1 (α1β2γ2)EC50
Protocol: Cellular electrophysiology is used to measure the pharmacological properties of our GABAA receptor modulators in heterologous cell systems. Each compound is tested for its ability to affect GABA mediated currents at a submaximal agonist dose (GABA EC20=2 μM). LTK cells are stably transfected with the α1β2γ2 subunits of the GABA receptor and CHO cells are transiently transfected with the α4β3δ subunits via the Lipofecatamine method. Cells were passaged at a confluence of about 50-80% and then seeded onto 35 mm sterile culture dishes containing 2 ml culture complete medium without antibiotics or antimycotics. Confluent clusters of cells are electrically coupled (Pritchett et al., 1988). Because responses in distant cells are not adequately voltage clamped and because of uncertainties about the extent of coupling (Verdoorn et al., 1990), cells were cultivated at a density that enables the recording of single cells (without visible connections to other cells).
Whole cell currents were measured with HEKA EPC-10 amplifiers using PatchMaster software or by using the high throughput QPatch platform (Sophion). Bath solution for all experiments contained (in mM): NaCl 137 mM, KCl 4 mM, CaCl2 1.8 mM, MgCl2 1 mM, HEPES 10 mM, D-Glucose 10 mM, pH (NaOH) 7.4. In some cases 0.005% cremophor was also added. Intracellular (pipette) solution contained: KCl 130 mM, MgCl2 1 mM, Mg-ATP 5 mM, HEPES 10 mM, EGTA 5 mM, pH 7.2. During experiments, cells and solutions were maintained at room temperature (19° C.-30° C.). For manual patch clamp recordings, cell culture dishes were placed on the dish holder of the microscope and continuously perfused (1 ml/min) with bath solution. After formation of a Gigaohm seal between the patch electrodes and the cell (pipette resistance range: 2.5 MΩ-6.0 MΩ; seal resistance range: >1 GΩ) the cell membrane across the pipette tip was ruptured to assure electrical access to the cell interior (whole-cell patch-configuration). For experiments using the QPatch system, cells were transferred as suspension to the QPatch system in the bath solution and automated whole cell recordings were performed.
Cells were voltage clamped at a holding potential of −80 mV. For the analysis of test articles, GABA receptors were stimulated by 2 μM GABA after sequential pre-incubation of increasing concentrations of the test article. Pre-incubation duration was 30 s and the duration of the GABA stimulus was 2 s. Test articles were dissolved in DMSO to form stock solutions (10 mM). Test articles were diluted to 0.01, 0.1, 1, and 10 μM in bath solution. All concentrations of test articles were tested on each cell. The relative percentage potentiation was defined as the peak amplitude in response to GABA EC20 in the presence of the test article divided by the peak amplitude in response to GABA EC20 alone, multiplied by 100.

C[C@@]1(O)CC[C@H]2[C@H](CC[C@@H]3[C@@H]2CC[C@]2(C)[C@@H](C(=O)Cn4nnc5ccccc54)CC[C@@H]32)C1 [SA-1]
activity at 10 µM: > 500% | Emax: 500 to 1000% | EC50: 500 to 1000 nM

C[C@@]1(O)CC[C@H]2[C@H](CC[C@@H]3[C@@H]2CC[C@]2(C)[C@@H](C(=O)Cn4ncc5ncccc54)CC[C@@H]32)C1 [SA-3]
α1β2γ2 GABA Qpatch in Ltk (Efficacy at 10 μm): C (“C” indicates an efficacy value of >500%) | Emax: 500 to 1000% | EC50: 1000 to 2000 nM

C[C@@]1(O)CC[C@H]2[C@H](CC[C@@H]3[C@@H]2CC[C@]2(C)[C@@H](C(=O)Cn4ncc5ccccc54)CC[C@@H]32)C1 [SA-5]
α1β2γ2 GABA Qpatch in Ltk (Efficacy at 10 μm): C (“C” indicates an efficacy value of >500%) | Emax: 500 to 1000% | EC50: 1000 to 2000 nM

C[C@@]1(O)CC[C@H]2[C@H](CC[C@@H]3[C@@H]2CC[C@]2(C)[C@@H](C(=O)Cn4ncc5c4CCCC5)CC[C@@H]32)C1 [SA-8]
α1β2γ2 GABA Qpatch in Ltk (Efficacy at 10 μm): B (“B” indicates an efficacy value of >100-500%) | Emax: 0 to 500% | EC50: 1000 to 2000 nM

C[C@@]1(O)CC[C@H]2[C@H](CC[C@@H]3[C@@H]2CC[C@]2(C)[C@@H](C(=O)Cn4ncc5cnccc54)CC[C@@H]32)C1 [SA-9]
α1β2γ2 GABA Qpatch in Ltk (Efficacy at 10 μm): B (“B” indicates an efficacy value of >100-500%)

C[C@@]1(O)CC[C@H]2[C@H](CC[C@@H]3[C@@H]2CC[C@]2(C)[C@@H](C(=O)Cn4cc5cnccc5n4)CC[C@@H]32)C1 [SA-10]
α1β2γ2 GABA Qpatch in Ltk (Efficacy at 10 μm): C (“C” indicates an efficacy value of >500%)

C[C@@]1(O)CC[C@H]2[C@H](CC[C@@H]3[C@@H]2CC[C@]2(C)[C@@H](C(=O)Cn4nnc5cnccc54)CC[C@@H]32)C1 [SA-12]
activity at 10 µM: 100 to 500%

C[C@@]1(O)CC[C@H]2[C@H](CC[C@@H]3[C@@H]2CC[C@]2(C)[C@@H](C(=O)Cn4nnc5ncccc54)CC[C@@H]32)C1 [SA-13]
activity at 10 µM: > 500%

C[C@@]1(O)CC[C@H]2[C@H](CC[C@@H]3[C@@H]2CC[C@]2(C)[C@@H](C(=O)Cn4nnc5cccnc54)CC[C@@H]32)C1 [SA-15]
activity at 10 µM: > 500%

C[C@@]1(O)CC[C@H]2[C@H](CC[C@@H]3[C@@H]2CC[C@]2(C)[C@@H](C(=O)Cn4ncc5cc(F)ccc54)CC[C@@H]32)C1 [SA-17]
activity at 10 µM: 100 to 500%

C[C@@]1(O)CC[C@H]2[C@H](CC[C@@H]3[C@@H]2CC[C@]2(C)[C@@H](C(=O)Cn4ncc5cccnc54)CC[C@@H]32)C1 [SA-19]
α1β2γ2 GABA Qpatch in Ltk (Efficacy at 10 μm): B (“B” indicates an efficacy value of >100-500%) | Emax: 500 to 1000% | EC50: > 2000 nM

C[C@@]1(O)CC[C@H]2[C@H](CC[C@@H]3[C@@H]2CC[C@]2(C)[C@@H](C(=O)Cn4ncc5ccncc54)CC[C@@H]32)C1 [SA-21]
α1β2γ2 GABA Qpatch in Ltk (Efficacy at 10 μm): B (“B” indicates an efficacy value of >100-500%)

C[C@@]1(O)CC[C@H]2[C@H](CC[C@@H]3[C@@H]2CC[C@]2(C)[C@@H](C(=O)Cn4ncc5ccc(F)cc54)CC[C@@H]32)C1 [SA-23]
activity at 10 µM: > 500%

Cc1cc2cnn(CC(=O)[C@H]3CC[C@H]4[C@@H]5CC[C@@H]6C[C@](C)(O)CC[C@@H]6[C@H]5CC[C@]34C)c2cn1 [SA-25]
activity at 10 µM: > 500%

C[C@@]1(O)CC[C@H]2[C@H](CC[C@@H]3[C@@H]2CC[C@]2(C)[C@@H](C(=O)Cn4ncc5ncc(Cl)cc54)CC[C@@H]32)C1 [SA-27]
activity at 10 µM: > 500%

C[C@@]1(O)CC[C@H]2[C@H](CC[C@@H]3[C@@H]2CC[C@]2(C)[C@@H](C(=O)Cn4ncc5nccnc54)CC[C@@H]32)C1 [SA-29]
activity at 10 µM: 100 to 500%

C[C@@]1(O)CC[C@H]2[C@H](CC[C@@H]3[C@@H]2CC[C@]2(C)[C@@H](C(=O)Cn4ncc5ncncc54)CC[C@@H]32)C1 [SA-33]
activity at 10 µM: 100 to 500%

C[C@@]1(O)CC[C@H]2[C@H](CC[C@@H]3[C@@H]2CC[C@]2(C)[C@@H](C(=O)Cn4ncc5cncnc54)CC[C@@H]32)C1 [SA-36]
activity at 10 µM: > 500%

C[C@@]1(O)CC[C@H]2[C@H](CC[C@@H]3[C@@H]2CC[C@]2(C)[C@@H](C(=O)Cn4cc5cc(C#N)ccc5n4)CC[C@@H]32)C1 [SA-37]
activity at 10 µM: > 500%

C[C@@]1(O)CC[C@H]2[C@H](CC[C@@H]3[C@@H]2CC[C@]2(C)[C@@H](C(=O)Cn4ncc5cc(C#N)ccc54)CC[C@@H]32)C1 [SA-38]
activity at 10 µM: > 500%

C[C@@]1(O)CC[C@H]2[C@H](CC[C@@H]3[C@@H]2CC[C@]2(C)[C@@H](C(=O)Cn4nnc5ccc(Cl)cc54)CC[C@@H]32)C1 [SA-39]
activity at 10 µM: 100 to 500%

C[C@@]1(O)CC[C@H]2[C@H](CC[C@@H]3[C@@H]2CC[C@]2(C)[C@@H](C(=O)Cn4nnc5cc(Cl)ccc54)CC[C@@H]32)C1 [SA-40]
activity at 10 µM: 100 to 500%

Cc1ccc2nnn(CC(=O)[C@H]3CC[C@H]4[C@@H]5CC[C@@H]6C[C@](C)(O)CC[C@@H]6[C@H]5CC[C@]34C)c2c1 [SA-42]
activity at 10 µM: 100 to 500%

Cc1ccc2c(c1)nnn2CC(=O)[C@H]1CC[C@H]2[C@@H]3CC[C@@H]4C[C@](C)(O)CC[C@@H]4[C@H]3CC[C@]12C [SA-43]
activity at 10 µM: 100 to 500%

Cc1nn(CC(=O)[C@H]2CC[C@H]3[C@@H]4CC[C@@H]5C[C@](C)(O)CC[C@@H]5[C@H]4CC[C@]23C)c2ccccc12 [SA-45]
activity at 10 µM: > 500%

Cc1c2ccccc2nn1CC(=O)[C@H]1CC[C@H]2[C@@H]3CC[C@@H]4C[C@](C)(O)CC[C@@H]4[C@H]3CC[C@]12C [SA-46]
activity at 10 µM: > 500%

COc1ccc2nn(CC(=O)[C@H]3CC[C@H]4[C@@H]5CC[C@@H]6C[C@](C)(O)CC[C@@H]6[C@H]5CC[C@]34C)nc2c1 [SA-47]
activity at 10 µM: > 500%

C[C@@]1(O)CC[C@H]2[C@H](CC[C@@H]3[C@@H]2CC[C@]2(C)[C@@H](C(=O)Cn4nc5ccccc5c4O)CC[C@@H]32)C1 [SA-54]
activity at 10 µM: > 500%

C[C@@]1(O)CC[C@H]2[C@H](CC[C@@H]3[C@@H]2CC[C@]2(C)[C@@H](C(=O)Cn4nc(Cl)c5ccccc54)CC[C@@H]32)C1 [SA-55]
activity at 10 µM: 100 to 500%

C[C@@]1(O)CC[C@H]2[C@H](CC[C@@H]3[C@@H]2CC[C@]2(C)[C@@H](C(=O)Cn4nnc5ncc(Cl)cc54)CC[C@@H]32)C1 [SA-56]
activity at 10 µM: 100 to 500%

C[C@@]1(O)CC[C@H]2[C@H](CC[C@@H]3[C@@H]2CC[C@]2(C)[C@@H](C(=O)Cn4nc5ccc(F)cc5n4)CC[C@@H]32)C1 [SA-62]
activity at 10 µM: 100 to 500%

C[C@@]1(O)CC[C@H]2[C@H](CC[C@@H]3[C@@H]2CC[C@]2(C)[C@@H](C(=O)Cn4nnc5c(F)cccc54)CC[C@@H]32)C1 [SA-64]
activity at 10 µM: 100 to 500%

C[C@@]1(O)CC[C@H]2[C@H](CC[C@@H]3[C@@H]2CC[C@]2(C)[C@@H](C(=O)Cn4nnc5cccc(F)c54)CC[C@@H]32)C1 [SA-65]
activity at 10 µM: > 500%

Cc1cccc2c1nnn2CC(=O)[C@H]1CC[C@H]2[C@@H]3CC[C@@H]4C[C@](C)(O)CC[C@@H]4[C@H]3CC[C@]12C [SA-67]
activity at 10 µM: > 500%

C[C@@]1(O)CC[C@H]2[C@H](CC[C@@H]3[C@@H]2CC[C@]2(C)[C@@H](C(=O)Cn4nc5ccc(OC(F)(F)F)cc5n4)CC[C@@H]32)C1 [SA-72]
activity at 10 µM: > 500%

COc1cccc2nnn(CC(=O)[C@H]3CC[C@H]4[C@@H]5CC[C@@H]6C[C@](C)(O)CC[C@@H]6[C@H]5CC[C@]34C)c12 [SA-73]
activity at 10 µM: 100 to 500%

COc1cccc2c1nnn2CC(=O)[C@H]1CC[C@H]2[C@@H]3CC[C@@H]4C[C@](C)(O)CC[C@@H]4[C@H]3CC[C@]12C [SA-74]
activity at 10 µM: 100 to 500%

COc1cccc2nn(CC(=O)[C@H]3CC[C@H]4[C@@H]5CC[C@@H]6C[C@](C)(O)CC[C@@H]6[C@H]5CC[C@]34C)nc12 [SA-75]
activity at 10 µM: 100 to 500%

C[C@@]1(O)CC[C@H]2[C@H](CC[C@@H]3[C@@H]2CC[C@]2(C)[C@@H](C(=O)Cn4nnc5c(Cl)cccc54)CC[C@@H]32)C1 [SA-76]
activity at 10 µM: > 500%

C[C@@]1(O)CC[C@H]2[C@H](CC[C@@H]3[C@@H]2CC[C@]2(C)[C@@H](C(=O)Cn4nnc5cccc(Cl)c54)CC[C@@H]32)C1 [SA-77]
activity at 10 µM: > 500%

C[C@]12CC[C@H]3[C@@H](CC[C@@H]4C[C@@](O)(CF)CC[C@@H]43)[C@@H]1CC[C@@H]2C(=O)Cn1nnc2ccccc21 [SA-79]
activity at 10 µM: > 500%
